Data on 25 compounds can be found in patent US11117900B2 (Vertex Pharmaceuticals Incorporated, priority 2012, dated 2021).

For the experiment, the system named is HCT116 colorectal cancer cells. Briefly: Cisplatin sensitization assay (96 h MTS cell viability).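 Note: compound concentration needed to lower the IC50 of Cisplatin alone by a set fold.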 In kind it is cell-based. The note with it: Cisplatin sensitization value. In outline:
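HCT116 cells were dosed simultaneously with compound and cisplatin as a full matrix of 2-fold serial dilutions from 10 μM top final concentration. Incubation was 96 h at 37° C., 5% CO2, followed by 1 h with MTS reagent for the viability read-out. Sensitization values were binned into +++, ++ and + categories.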

Consider `Nc1nn2cc(F)cnc2c1C(=O)Nc1cnccc1-c1ccc(C(=O)N2CCN3CCC2CC3)cc1F` [I-C-50, N-(4-(4-(1,4-diazabicyclo[3.2.2]nonane-4-carbonyl)-2-fluorophenyl)pyridin-3-yl)-2-amino-6-fluoropyrazolo[1,5-a]pyrimidine-3-carboxamide], for which the “Cisplatin Sensitization Assay” value was “+++ (Compounds with a Cisplatin sensitization value of <0.02 μM are marked with “+++.”)”.
For the compound `N#CCc1cnc2c(C(=O)Nc3cnccc3Oc3ccccc3)c(N)nn2c1` [I-O-25, 2-amino-6-(cyanomethyl)-N-(4-phenoxypyridin-3-yl)pyrazolo[1,5-a]pyrimidine-3-carboxamide], the “Cisplatin Sensitization Assay” value is given as “+++ (Compounds with a Cisplatin sensitization value of <0.02 μM are marked with “+++.”)”.
To `CS(=O)(=O)C1CCN(c2c(F)cncc2NC(=O)c2c(N)nn3cc(F)cnc23)CC1` [I-N-165, 2-amino-6-fluoro-N-(5-fluoro-4-(4-(methylsulfonyl)piperidin-1-yl)pyridin-3-yl)pyrazolo[1,5-a]pyrimidine-3-carboxamide] belongs “+++ (Compounds with a Cisplatin sensitization value of <0.02 μM are marked with “+++.”)”.
Turning to `C[N+]1([O-])CCc2c(cncc2NC(=O)c2c(N)nn3cc(F)cnc23)C1` (stereo not shown) [I-C-9, 5-(2-amino-6-fluoropyrazolo[1,5-a]pyrimidine-3-carboxamido)-2-methyl-1,2,3,4-tetrahydro-2,7-naphthyridine 2-oxide], the “Cisplatin Sensitization Assay” value is on record as “+ (Compounds with a Cisplatin sensitization value >0.2 μM but <5 μM are marked with “+.”)”.
On to `Nc1nn2cc(F)cnc2c1C(=O)Nc1cnccc1N1CCCCC1` [I-N-152, 2-amino-6-fluoro-N-(4-(piperidin-1-yl)pyridin-3-yl)pyrazolo[1,5-a]pyrimidine-3-carboxamide], for which the “Cisplatin Sensitization Assay” value is on record as “+++ (Compounds with a Cisplatin sensitization value of <0.02 μM are marked with “+++.”)”.
The result for `Nc1nn2cc(F)cnc2c1C(=O)Nc1cncc(F)c1N1CCC(C(=O)N2CCNC3CC32)CC1` (stereo not shown) [I-G-62, N-(4-(4-(2,5-diazabicyclo[4.1.0]heptane-2-carbonyl)piperidin-1-yl)-5-fluoropyridin-3-yl)-2-amino-6-fluoropyrazolo[1,5-a]pyrimidine-3-carboxamide] reads “+++ (Compounds with a Cisplatin sensitization value of <0.02 μM are marked with “+++.”)”; that for `Nc1nn2cc(Cl)cnc2c1C(=O)Nc1cnccc1OC1CCCOC1` (stereo not shown) [I-O-65, 2-amino-6-chloro-N-(4-((tetrahydro-2H-pyran-3-yl)oxy)pyridin-3-yl)pyrazolo[1,5-a]pyrimidine-3-carboxamide], “+++ (Compounds with a Cisplatin sensitization value of <0.02 μM are marked with “+++.”)”.
The result for `Nc1nn2cc(Cl)cnc2c1C(=O)Nc1cnccc1N1CCn2cncc2C1` [I-N-75, 2-amino-6-chloro-N-(4-(5,6-dihydroimidazo[1,5-a]pyrazin-7(8H)-yl)pyridin-3-yl)pyrazolo[1,5-a]pyrimidine-3-carboxamide] reads “+++ (Compounds with a Cisplatin sensitization value of <0.02 μM are marked with “+++.”)”; that for `Nc1nn2cc(F)cnc2c1C(=O)Nc1cnccc1N1CCC2(CCNC2)CC1` [I-N-255, N-(4-(2,8-diazaspiro[4.5]decan-8-yl)pyridin-3-yl)-2-amino-6-fluoropyrazolo[1,5-a]pyrimidine-3-carboxamide], “++ (Compounds with a Cisplatin sensitization value >0.02 μM but <0.2 μM are marked with “++.”)”; that for `Nc1nn2cc(F)cnc2c1C(=O)Nc1cnccc1O[C@H]1CCCN(C2COC2)C1` [I-O-9, (S)-2-amino-6-fluoro-N-(4-((1-(oxetan-3-yl)piperidin-3-yl)oxy)pyridin-3-yl)pyrazolo[1,5-a]pyrimidine-3-carboxamide], “++ (Compounds with a Cisplatin sensitization value >0.02 μM but <0.2 μM are marked with “++.”)”.
On to `CN1CCC(OC2CCN(c3ccncc3NC(=O)c3c(N)nn4cc(F)cnc34)CC2)CC1` [I-N-154, 2-amino-6-fluoro-N-(4-(4-((1-methylpiperidin-4-yl)oxy)piperidin-1-yl)pyridin-3-yl)pyrazolo[1,5-a]pyrimidine-3-carboxamide], for which the “Cisplatin Sensitization Assay” value is given as “+++ (Compounds with a Cisplatin sensitization value of <0.02 μM are marked with “+++.”)”.
The result for `CN1CCN(c2c(NC(=O)c3c(N)nn4cc(F)cnc34)cncc2C(F)F)CC1` [I-N-111, 2-amino-N-(5-(difluoromethyl)-4-(4-methylpiperazin-1-yl)pyridin-3-yl)-6-fluoropyrazolo[1,5-a]pyrimidine-3-carboxamide] reads “++ (Compounds with a Cisplatin sensitization value >0.02 μM but <0.2 μM are marked with “++.”)”; that for `COCCN1CCC[C@H](Oc2ccncc2NC(=O)c2c(N)nn3cc(Cl)cnc23)C1` [I-O-67, (S)-2-amino-6-chloro-N-(4-((1-(2-methoxyethy)piperidin-3-yl)oxy)pyridin-3-yl)pyrazolo[1,5-a]pyrimidine-3-carboxamide], “++ (Compounds with a Cisplatin sensitization value >0.02 μM but <0.2 μM are marked with “++.”)”; that for `CCOC1CN(C(=O)C2CCN(c3ccncc3NC(=O)c3c(N)nn4cc(F)cnc34)CC2)C1` [I-G-91, 2-amino-N-(4-(4-(3-ethoxyazetidine-1-carbonyl)piperidin-1-yl)pyridin-3-yl)-6-fluoropyrazolo[1,5-a]pyrimidine-3-carboxamide], “+++ (Compounds with a Cisplatin sensitization value of <0.02 μM are marked with “+++.”)”.
Consider `CS(=O)(=O)C1CCN(c2c(Cl)cncc2NC(=O)c2c(N)nn3cc(F)cnc23)C1` (stereo not shown) [I-N-287, 2-amino-N-(5-chloro-4-(3-(methylsulfonyl)pyrrolidin-1-yl)pyridin-3-yl)-6-fluoropyrazolo[1,5-a]pyrimidine-3-carboxamide], for which the “Cisplatin Sensitization Assay” value was “+++ (Compounds with a Cisplatin sensitization value of <0.02 μM are marked with “+++.”)”.
`CO[C@H]1CCN(C(=O)C2CCN(c3ccncc3NC(=O)c3c(N)nn4cc(F)cnc34)CC2)C1` [I-G-94, (S)-2-amino-6-fluoro-N-(4-(4-(3-methoxypyrrolidine-1-carbonyl)piperidin-1-yl)pyridin-3-yl)pyrazolo[1,5-a]pyrimidine-3-carboxamide]: the “Cisplatin Sensitization Assay” value was “+++ (Compounds with a Cisplatin sensitization value of <0.02 μM are marked with “+++.”)”.
Consider `CN1CCN(C(=O)C2(C#N)CCN(c3c(F)cncc3NC(=O)c3c(N)nn4cc(F)cnc34)CC2)CC1` [I-G-25, 2-amino-N-(4-(4-cyano-4-(4-methylpiperazine-1-carbonyl)piperidin-1-yl)-5-fluoropyridin-3-yl)-6-fluoropyrazolo[1,5-a]pyrimidine-3-carboxamide], for which the “Cisplatin Sensitization Assay” value was “+++ (Compounds with a Cisplatin sensitization value of <0.02 μM are marked with “+++.”)”.
With `N#CCc1cnc2c(C(=O)Nc3cnccc3OC3CCCNC3)c(N)nn2c1` (racemic) [I-O-2, (R,S)-2-amino-6-(cyanomethyl)-N-(4-(piperidin-3-yloxy)pyridin-3-yl)pyrazolo[1,5-a]pyrimidine-3-carboxamide], the “Cisplatin Sensitization Assay” value was “++ (Compounds with a Cisplatin sensitization value >0.02 μM but <0.2 μM are marked with “++.”)”.
Take `CN1CCN(C(=O)C2CCN(c3c(F)cncc3NC(=O)c3c(N)nn4cc(Cl)cnc34)CC2)CC1` [I-G-5, 2-amino-6-chloro-N-(5-fluoro-4-(4-(4-methylpiperazine-1-carbonyl)piperidin-1-yl)pyridin-3-yl)pyrazolo[1,5-a]pyrimidine-3-carboxamide]: the “Cisplatin Sensitization Assay” value is “+++ (Compounds with a Cisplatin sensitization value of <0.02 μM are marked with “+++.”)”.
With `Nc1nn2cc(F)cnc2c1C(=O)Nc1cncc(F)c1N1CCN(C(=O)C2CC2)CC1` [I-N-276, 2-amino-N-(4-(4-(cyclopropanecarbonyl)piperazin-1-yl)-5-fluoropyridin-3-yl)-6-fluoropyrazolo[1,5-a]pyrimidine-3-carboxamide], the “Cisplatin Sensitization Assay” value is given as “+++ (Compounds with a Cisplatin sensitization value of <0.02 μM are marked with “+++.”)”.
Consider `Nc1nn2cc(F)cnc2c1C(=O)Nc1cncc(F)c1N1CCC(C(=O)N2CC3(COC3)C2)CC1` [I-G-72, N-(4-(4-(2-oxa-6-azaspiro[3.3]heptane-6-carbonyl)piperidin-1-yl)-5-fluoropyridin-3-yl)-2-amino-6-fluoropyrazolo[1,5-a]pyrimidine-3-carboxamide], for which the “Cisplatin Sensitization Assay” value is reported as “+++ (Compounds with a Cisplatin sensitization value of <0.02 μM are marked with “+++.”)”.
Consider `Nc1nn2cc(Cl)cnc2c1C(=O)Nc1cnccc1N1CCN2CCC[C@H]2C1` [I-N-71, (S)-2-amino-6-chloro-N-(4-(hexahydropyrrolo[1,2-a]pyrazin-2(1H)-yl)pyridin-3-yl)pyrazolo[1,5-a]pyrimidine-3-carboxamide], for which the “Cisplatin Sensitization Assay” value was “+++ (Compounds with a Cisplatin sensitization value of <0.02 μM are marked with “+++.”)”.
For the compound `Nc1nn2cc(F)cnc2c1C(=O)Nc1cnccc1-c1ccc(C(=O)N2CCC(N3CCC3)CC2)nc1` [I-C-54, 2-amino-N-(6-(4-(azetidin-1-yl)piperidine-1-carbonyl)-[3,4′-bipyridin]-3′-yl)-6-fluoropyrazolo[1,5-a]pyrimidine-3-carboxamide], the “Cisplatin Sensitization Assay” value is recorded as “+++ (Compounds with a Cisplatin sensitization value of <0.02 μM are marked with “+++.”)”.
Consider `Cc1cncc(NC(=O)c2c(N)nn3cc(F)cnc23)c1-n1nccc1C` [I-N-237], for which the “Cisplatin Sensitization Assay” value is reported as “+ (Compounds with a Cisplatin sensitization value >0.2 μM but <5 μM are marked with “+.”)”.
As for `CCN1CCN(C(=O)C2CCN(c3c(F)cncc3NC(=O)c3c(N)nn4cc(F)cnc34)CC2)CC1` [I-G-9, 2-amino-N-(4-(4-(4-ethylpiperazine-1-carbonyl)piperidin-1-yl)-5-fluoropyridin-3-yl)-6-fluoropyrazolo[1,5-a]pyrimidine-3-carboxamide], the “Cisplatin Sensitization Assay” value was “+++ (Compounds with a Cisplatin sensitization value of <0.02 μM are marked with “+++.”)”.
